Results taken from patent publication US11149277B2, “Method of producing enriched exosomes” (National Health Research Institutes, priority 2016, dated 2021).

Key:
[1] = test system: NAMECs; experiment: Western blot of exosome markers and proteins in CM-P4 fractions of NAMECs; format: cell-based, human; conditions: AH23848 0.4, 2, 4 μg/ml; AH6809 0.8, 4, 8 μg/ml; GW 1 μg/ml
Description: FIG. 2 includes graphs and blots showing analyses of GW-treated NAMEC P4 fractions. CM-P4 GW-treated NAMECs were collected and subjected to (A) NanoSight Nanoparticle Tracking Analysis (NTA) and (B) Dynamic Light Scattering/Zeta Potential Analysis (DLS). […] D: particle diameter. RN: relative number. (C) is a blot showing the amounts of the CD44 stem cell marker and the CD81, CD9, TSG101, Alix, HSP70 and GAPDH exosome markers measured in the indicated CM-P4 fractions and cell lysates. The culture media and cell lysates were collected from the same number of NAMECs treated with vehicle (Crl), GW627368X (GW) or PGE2 (1 μM) for 4 days. (D) is a blot showing the amounts of the GAPDH and CD81 exosome markers and the CD44 stem cell marker measured in the CM-P4 fraction of NAMECs (CD44hi/CD24− stem cells) or CD44lo/CD24+ non-stem cells (HMLE cells) treated with vehicle (Crl) or GW for 2 days. 1×: P4 exosome fraction released by 1×10^6 cells; 2×: P4 exosome fraction released by 2×10^6 cells. […] (E) is a blot showing that the CD44 stem cell marker and GAPDH and CD81 exosome markers were measured in the indicated P4 conditioned medium fractions of NAMECs treated with vehicle (Crl), GW627368X (GW, 1 μg/ml), AH23848 (EP4 antagonist; 0.4, 2, 4 μg/ml), or AH6809 (EP1/2/3 antagonist; 0.8, 4, 8 μg/ml). (F) is a blot showing the HSP70, GAPDH and CD81 exosome markers measured in the indicated CM-P4 of NAMECs, NAMEC-shEP4-1 cells, and NAMEC-shEP4-2 cells treated with vehicle or with doxycycline (Dox, 2 μg/ml) (top panel). Doxyclycline (Dox) induced the production EP4 shRNA in NAMEC-shEP4 cells (bottom panel).
The P4 exosome fractions and cell lysates were collected from NAMECs treated with vehicle (Crl), GW627368X (GW), or PGE2 for 4 days. 1×: P4 exosome fraction released by 2.5×10^5 cells; 5×: P4 exosome fraction released by 12.5×10^5 cells. Hg: Hg-integrin β1, Lg: Lg-integrin β1, H: H-integrin α6, L: L-integrin α6, pg: pg-LRP6, g: g-LRP6, Ng: Ng-LRP6.
(§1) The isolated human mammary epithelial stem cells (NAMECs) were cultured in mammary epithelial cell basal medium (250 ml MCDB-170, 250 ml DMEM-F12, 1.2 g sodium bicarbonate, 2.5 μg EGF, 0.25 mg Hydrocortisone, 2.5 mg insulin, 35 mg BPE) with or without containing EP4 antagonist, i.e., GW627368X (GW) at 1 μg/ml, or AH23848 (AH) at 4 μg/ml, for 4 days. The culture medium was supplied with 0.5 μg/ml of GW or 2 μg/ml of AH23848 at the third day of the culturing period. For the induction of EP4 antagonist-induced exosomes from mouse mammary epithelial cells, cells were cultured in a medium containing 10 μg/ml of GW for 4 days.
The culture media were centrifuged at 300 g for 5 min to remove cells (P1), at 2,000 g for 20 min (P2), then at 10,000 g for 30 min (P3) all at 4° C. Dead cells and cell debris were removed at 300 g (P1) and 1200 g (P2). […]

[2] = test system: NAMECs; experiment: NanoSight Nanoparticle Tracking Analysis of CM-P4 fractions of NAMEC culture; format: cell-based, human; conditions: CM-P4 fraction, 4 days; PGE2 1 μM
Description: FIG. 1 includes a TEM image and a graph. (A) is a TEM image of the P4 medium fraction of NAMECs treated with GW627368X (GW) for 4 days. Scale bar, 1 μm. (B) is a graph showing the number of particles in the CM-P4 fractions of NAMEC culture counted by using NanoSight Nanoparticle Tracking analysis. Top panel: Quantification of exosome release is shown as the ratio of [P4 GAPDH marker level]/[cell number]. Data are means±SEM (n=3). *P≤0.05. **P≤0.005. Bottom table: Quantification of exosome release is shown as the number of particles of the CM-P4 fractions released per cell measured by nanoparticle tracking analysis.
as §1
The culture media were centrifuged at 300 g for 5 min to remove cells (P1), at 2,000 g for 20 min (P2), then at 10,000 g for 30 min (P3) all at 4° C. Dead cells and cell debris were removed at 300 g (P1) and 1200 g (P2). Finally, exosomes (P4) were separated from the supernatant by centrifugation at 110,000 g for 60 min. The P4 exosome pellet was washed once in PBS and then re-suspended in PBS for further application.

[3] = test system: NAMEC-R cells; experiment: NTA of EV release from Ras-transformed NAMEC-R cells; format: cell-based; conditions: CM-P4, 4 days; GW 1 μg/ml; SQ 120 and 240 nM
Description: Vesicles in the P4 fractions were counted using NTA. Data are means±SEM (n=6). ***P≤0.001; (B) The Alix, TSG101, CD63, CD81 and GAPDH exosome markers were measured in the CM-P4 fractions of NAMEC-R cells treated with vehicle (Crl), GW627368X (GW, 1 μg/ml), SQ 29,548 (SQ120/SQ240; 120 nM and 240 nM); (C) The mesenchymal marker N-cadherin, CSC markers and exosome markers were analyzed in the conditioned medium P4 fraction derived from equal numbers of vehicle-treated NAMEC-R cells (Crl), GW-treated NAMEC-R cells (GW, 1 μg/ml GW627368X for 4 days) and SQ 29,548-treated NAMEC-R cells (SQ120/SQ240; 120 nM and 240 nM for 4 days). The longer GAPDH(L) and CD81(L) exposures show the low, but detectable, presence of GAPDH and CD81 in the conditioned medium P4 fraction of vehicle-treated NAMEC-R cells.
We further investigated whether EP4 antagonism and TP receptor antagonism (as GW has partial affinity to the human TP receptor) affected EV release from transformed mammary epithelial stem cells. Four-day conditioned media of vehicle, GW-, or SQ (a TP antagonist)-treated Ras-transformed NAMEC mammary stem cells (NAMEC-R) were collected and subjected to differential ultracentrifugation to isolate EVs released by the cells. The numbers of vesicles in CM-P4 fractions were determined using NTA (FIG. 20, A). EP4 antagonism elicited release of ˜5000 vesicles per NAMEC-R cell. […]

SMILES | exosome release by exosome markers in CM-P4 fractions [1] | other results
CC(C)Oc1ccc2c(=O)c3cc(C(=O)O)ccc3oc2c1 [AH6809] | not significantly induced | 
O=C(O)CC/C=C\CC[C@H]1[C@H](N2CCOCC2)C(=O)C[C@H]1OCc1ccc(-c2ccccc2)cc1 [AH23848] | induced in a dose-dependent manner | 
CCCCC[C@H](O)/C=C/[C@H]1[C@H](O)CC(=O)[C@@H]1C/C=C\CCCC(=O)O [PGE2, prostaglandin E2] |  | concentration of released membrane vesicles [2]: ~0.5×10^4 particle/cell
O=C(O)CCC/C=C\C[C@@H]1[C@H](CNNC(=O)Nc2ccccc2)[C@H]2CC[C@@H]1O2 [SQ 29,548] |  | vesicles released per cell [3]: ~1000 vesicles per cell
